Measured values: patent US10890591B2, “Methods and dose packs for monitoring medication adherence” (Synapse Biosciences, LLC, priority 2016, dated 2021)
Where two headings read alike, the source gives them in different places. Blank lines part the entries; values can stand above or below the molecule they belong to.

Legend:
clinical [1] = conditions: human, in vivo
Source text: (§1) All other markers were obtained from commercial sources. Urine and saliva were collected prior to each day's dosing of marker confirming the presence or absence of markers before the experiment started. […] The presence of all 7 markers at day 8 would confirm that all markers were ingested in the previous 7 day one week period.
(§2) Healthy volunteers with no recent exposure to the markers who were not currently taking prescribed medications, OTC medications or vitamins and supplements were chosen. Exposure to the markers more than one month before starting the experiment was allowed and no dietary restrictions were required. Subjects were given a 7 day blister pack with markers sequenced in the order above. Subjects verbally confirmed they understood the urine and saliva collection procedures. Instructions printed on the marker blister pack instructed subjects to collect urine and saliva each morning before they took the daily dose of marker. They were also instructed to take the daily dose of marker close to the same time each day.

clinical [2] = conditions: human, in vivo, Urine Results
[3] = human, in vivo
clinical [4] = conditions: in vivo
Source text: as §1, §2

[5] = human, Average of Urine Samples
[6] = human, Subject A, Urine Results
[7] = human, Subject B, Urine Results

- concentration at 1 day (clinical [1]): 0 ng/mL
- concentration at 2 day (clinical [1]): 0 ng/mL
- concentration at 3 day (clinical [1]): 0 ng/mL
- concentration at 4 day (clinical [1]): 0 ng/mL
- concentration at 5 day (clinical [1]): 0 ng/mL
- concentration at 6 day (clinical [1]): 227 ng/mL
- concentration at 7 day (clinical [1]): 0 ng/mL
- concentration at 8 day (clinical [1]): 0 ng/mL
- detection of marker in saliva across subjects (clinical [1]): not detectable in 2 of the 4 subjects
- concentration at 1 day (clinical [2]; Subject A): 0 ng/mL
- concentration at 2 day (clinical [2]; Subject A): 0 ng/mL
- concentration at 3 day (clinical [2]; Subject A): 0 ng/mL
- concentration at 4 day (clinical [2]; Subject A): 0 ng/mL
- concentration at 5 day (clinical [2]; Subject A): 0 ng/mL
- concentration at 6 day (clinical [2]; Subject A): 481000 ng/mL
- concentration at 1 day (clinical [2]; Subject B): 0 ng/mL
- concentration at 2 day (clinical [2]; Subject B): 0 ng/mL
- concentration at 3 day (clinical [2]; Subject B): 0 ng/mL
- concentration at 4 day (clinical [2]; Subject B): 0 ng/mL
- concentration at 5 day (clinical [2]; Subject B): 0 ng/mL
- concentration at 6 day (clinical [2]; Subject B): 0 ng/mL
- concentration at 7 day (clinical [2]; Subject B): 0 ng/mL
- concentration at 8 day (clinical [2]; Subject B): 0 ng/mL
- concentration at 1 day (clinical [2]; Subject C): 0 ng/mL
- concentration at 2 day (clinical [2]; Subject C): 0 ng/mL
- concentration at 3 day (clinical [2]; Subject C): 0 ng/mL
- concentration at 4 day (clinical [2]; Subject C): 0 ng/mL
- concentration at 5 day (clinical [2]; Subject C): 0 ng/mL
- concentration at 6 day (clinical [2]; Subject C): 151000 ng/mL
- concentration at 7 day (clinical [2]; Subject C): 214000 ng/mL
- concentration at 8 day (clinical [2]; Subject C): 8840 ng/mL
- concentration at 3 day (clinical [2]; Subject D): 0 ng/mL
- concentration at 4 day (clinical [2]; Subject D): 0 ng/mL
- concentration at 5 day (clinical [2]; Subject D): 0 ng/mL
- concentration at 6 day (clinical [2]; Subject D): 684000 ng/mL
- concentration at 8 day (clinical [2]; Subject D): 75300 ng/mL
- Subject C, Urine Results (clinical [4]; human, 1 day): 0 ng/m
- Subject D, Urine Results (clinical [4]; human, 1 day): 0 ng/m
- Subject C, Urine Results (clinical [4]; human, 2 day): 0 ng/m
- Subject D, Urine Results (clinical [4]; human, 2 day): 0 ng/m
- Subject C, Urine Results (clinical [4]; human, 3 day): 0 ng/m
- Subject D, Urine Results (clinical [4]; human, 3 day): 0 ng/m
- Subject C, Urine Results (clinical [4]; human, 4 day): 0 ng/m
- Subject D, Urine Results (clinical [4]; human, 4 day): 0 ng/m
- Subject C, Urine Results (clinical [4]; human, 5 day): 0 ng/m
- Subject D, Urine Results (clinical [4]; human, 5 day): 0 ng/m
- Subject A, Urine Results (clinical [4]; human, 6 day): 2020000 ng/mL
- Subject C, Urine Results (clinical [4]; human, 6 day): 618000 ng/m
- Subject D, Urine Results (clinical [4]; human, 6 day): 585000 ng/m
- Subject C, Urine Results (clinical [4]; human, 7 day): 144000 ng/m
- Subject D, Urine Results (clinical [4]; human, 7 day): 185000 ng/m
- Subject C, Urine Results (clinical [4]; human, 8 day): 125000 ng/m
- Subject D, Urine Results (clinical [4]; human, 8 day): 54100 ng/m
- concentration at 1 day (clinical [4]; [5]): 0 ng/mL
- concentration at 2 day (clinical [4]; [5]): 0 ng/mL
- concentration at 3 day (clinical [4]; [5]): 0 ng/mL
- concentration at 4 day (clinical [4]; [5]): 0 ng/mL
- concentration at 5 day (clinical [4]; [5]): 0 ng/mL
- concentration at 6 day (clinical [4]; [5]): 972000 ng/mL
- concentration at 7 day (clinical [4]; [5]): 163000 ng/mL
- concentration at 8 day (clinical [4]; [5]): 88700 ng/mL
- concentration at 1 day (clinical [4]; [6]): 0 ng/mL
- concentration at 2 day (clinical [4]; [6]): 0 ng/mL
- concentration at 3 day (clinical [4]; [6]): 0 ng/mL
- concentration at 4 day (clinical [4]; [6]): 0 ng/mL
- concentration at 5 day (clinical [4]; [6]): 0 ng/mL
- concentration at 1 day (clinical [4]; [7]): 0 ng/mL
- concentration at 2 day (clinical [4]; [7]): 0 ng/mL
- concentration at 3 day (clinical [4]; [7]): 0 ng/mL
- concentration at 4 day (clinical [4]; [7]): 0 ng/mL
- concentration at 5 day (clinical [4]; [7]): 0 ng/mL
- concentration at 6 day (clinical [4]; [7]): 663000 ng/mL
- concentration at 7 day (clinical [4]; [7]): 151000 ng/mL
- concentration at 8 day (clinical [4]; [7]): 120000 ng/mL
Structure (SMILES): CN(C)CCOC(c1ccccc1)c1ccccc1 [Diphenhydramine]
- course of urine levels relative to dosing [3]: zero before dosing, peaked the day after dosing and slowly decreased over time
- course of urine levels relative to dosing (clinical [4]): zero before dosing, peaked the day after dosing and slowly decreased over time

- concentration at 1 day (clinical [1]): 0 ng/mL
- concentration at 2 day (clinical [1]): 0 ng/mL
- concentration at 3 day (clinical [1]): 0 ng/mL
- concentration at 4 day (clinical [1]): 0 ng/mL
- concentration at 5 day (clinical [1]): 5.71 ng/mL
- concentration at 6 day (clinical [1]): 0.34 ng/mL
- concentration at 7 day (clinical [1]): 0 ng/mL
- concentration at 8 day (clinical [1]): 0 ng/mL
- concentration at 1 day (clinical [2]; Subject A): 0 ng/mL
- concentration at 2 day (clinical [2]; Subject A): 0 ng/mL
- concentration at 3 day (clinical [2]; Subject A): 0 ng/mL
- concentration at 4 day (clinical [2]; Subject A): 0 ng/mL
- concentration at 1 day (clinical [2]; Subject B): 0 ng/mL
- concentration at 2 day (clinical [2]; Subject B): 0 ng/mL
- concentration at 3 day (clinical [2]; Subject B): 0 ng/mL
- concentration at 4 day (clinical [2]; Subject B): 0 ng/mL
- concentration at 1 day (clinical [2]; Subject C): 0 ng/mL
- concentration at 2 day (clinical [2]; Subject C): 0 ng/mL
- concentration at 3 day (clinical [2]; Subject C): 0 ng/mL
- concentration at 4 day (clinical [2]; Subject C): 0 ng/mL
- concentration at 5 day (clinical [2]; Subject C): 3830 ng/mL
- concentration at 6 day (clinical [2]; Subject C): 429 ng/mL
- concentration at 7 day (clinical [2]; Subject C): 390 ng/mL
- concentration at 8 day (clinical [2]; Subject C): 139 ng/mL
- concentration at 3 day (clinical [2]; Subject D): 0 ng/mL
- concentration at 4 day (clinical [2]; Subject D): 0 ng/mL
- concentration at 5 day (clinical [2]; Subject D): 5050 ng/mL
- concentration at 6 day (clinical [2]; Subject D): 1670 ng/mL
- concentration at 8 day (clinical [2]; Subject D): 27.8 ng/mL
- Subject C, Urine Results (clinical [4]; human, 1 day): 0 ng/m
- Subject D, Urine Results (clinical [4]; human, 1 day): 0 ng/m
- Subject C, Urine Results (clinical [4]; human, 2 day): 0 ng/m
- Subject D, Urine Results (clinical [4]; human, 2 day): 0 ng/m
- Subject C, Urine Results (clinical [4]; human, 3 day): 0 ng/m
- Subject D, Urine Results (clinical [4]; human, 3 day): 0 ng/m
- Subject C, Urine Results (clinical [4]; human, 4 day): 0 ng/m
- Subject D, Urine Results (clinical [4]; human, 4 day): 0 ng/m
- Subject C, Urine Results (clinical [4]; human, 5 day): 968 ng/m
- Subject D, Urine Results (clinical [4]; human, 5 day): 3820 ng/m
- Subject C, Urine Results (clinical [4]; human, 6 day): 165 ng/m
- Subject D, Urine Results (clinical [4]; human, 6 day): 260 ng/m
- Subject C, Urine Results (clinical [4]; human, 7 day): 122 ng/m
- Subject D, Urine Results (clinical [4]; human, 7 day): 37.3 ng/m
- Subject C, Urine Results (clinical [4]; human, 8 day): 78.9 ng/m
- Subject D, Urine Results (clinical [4]; human, 8 day): 19.4 ng/m
- concentration at 1 day (clinical [4]; [5]): 0 ng/mL
- concentration at 2 day (clinical [4]; [5]): 0 ng/mL
- concentration at 3 day (clinical [4]; [5]): 0 ng/mL
- concentration at 4 day (clinical [4]; [5]): 0 ng/mL
- concentration at 5 day (clinical [4]; [5]): 1560 ng/mL
- concentration at 6 day (clinical [4]; [5]): 203 ng/mL
- concentration at 7 day (clinical [4]; [5]): 64.5 ng/mL
- concentration at 8 day (clinical [4]; [5]): 43.2 ng/mL
- concentration at 1 day (clinical [4]; [6]): 0 ng/mL
- concentration at 2 day (clinical [4]; [6]): 0 ng/mL
- concentration at 3 day (clinical [4]; [6]): 0 ng/mL
- concentration at 4 day (clinical [4]; [6]): 0 ng/mL
- concentration at 1 day (clinical [4]; [7]): 0 ng/mL
- concentration at 2 day (clinical [4]; [7]): 0 ng/mL
- concentration at 3 day (clinical [4]; [7]): 0 ng/mL
- concentration at 4 day (clinical [4]; [7]): 0 ng/mL
Structure (SMILES): NC(N)=Nc1nc(CSCCC(N)=NS(N)(=O)=O)cs1 [Famotidine]
- course of urine levels relative to dosing [3]: zero before dosing, peaked the day after dosing and slowly decreased over time
- course of urine levels relative to dosing (clinical [4]): zero before dosing, peaked the day after dosing and slowly decreased over time
